Series [1] has as its target Neuronal acetylcholine receptor; alpha9/alpha10 (Homo sapiens, UniProt Q9GZZ6+Q9UGM1). As to the kind of experiment: Inhibition of human nAChR alpha9alpha10 expressed in Xenopus laevis oocytes holding potential of -70 mV by voltage-clamp based electrophysiological method. It counts as cell-based.
Series [2] is described as follows: Antiproliferative activity against human PBMC cells assessed as cell growth inhibition incubated for 10 mins by CFSE staining based flow cytometric analysis. It counts as toxicity. (In general: Flow cytometry measures light scatter and fluorescence of single cells or particles in a stream.)
The subject of series [3] is Human immunodeficiency virus 1. Description: Antiviral activity against recombinant luciferase-expressing HIV-1 infected in HEK293T cells incubated for 48 hr by luciferase assay based luminometer analysis. Type of series: functional, organism-based. Particulars: Human immunodeficiency virus 1, HEK-293T.
Series [4] has as its system Human immunodeficiency virus. Description: Antiviral activity against HIV infected in human HeLa cells expressing CD4-LTR-beta-gal assessed as inhibition of syncytia formation measured after 15 hrs by 5-bromo-4-chloro-3-indolyl-beta-D-galactoside staining based colorimetry assay. Type of series: functional, organism-based. Particulars: Human immunodeficiency virus 1, HeLa.

A further series concerns T-cell line. As to the kind of experiment: Immunomodulatory activity in human T cells assessed as inhibition of IL-2 production incubated for 15 mins by FACSCalibur flow cytometry analysis. The following applies: 0.25 h. Type of series: functional, cell-based.

Neuronal acetylcholine receptor; alpha9/alpha10, sequence (Q9UGM1 whole entry): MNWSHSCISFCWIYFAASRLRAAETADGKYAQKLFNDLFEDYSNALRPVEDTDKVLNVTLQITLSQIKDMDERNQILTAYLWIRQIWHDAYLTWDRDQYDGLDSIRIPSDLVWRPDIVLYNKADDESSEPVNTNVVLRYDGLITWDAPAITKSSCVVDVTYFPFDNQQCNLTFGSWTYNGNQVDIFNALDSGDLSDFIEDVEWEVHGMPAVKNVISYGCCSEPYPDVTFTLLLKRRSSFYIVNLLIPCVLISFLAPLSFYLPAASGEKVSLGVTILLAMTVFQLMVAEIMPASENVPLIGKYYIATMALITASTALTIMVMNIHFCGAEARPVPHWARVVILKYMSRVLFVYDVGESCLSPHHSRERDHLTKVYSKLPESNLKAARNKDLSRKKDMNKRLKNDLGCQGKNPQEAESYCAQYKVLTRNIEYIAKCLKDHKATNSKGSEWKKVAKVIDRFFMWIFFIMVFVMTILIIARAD
Neuronal acetylcholine receptor; alpha9/alpha10, sequence (Q9GZZ6 whole entry): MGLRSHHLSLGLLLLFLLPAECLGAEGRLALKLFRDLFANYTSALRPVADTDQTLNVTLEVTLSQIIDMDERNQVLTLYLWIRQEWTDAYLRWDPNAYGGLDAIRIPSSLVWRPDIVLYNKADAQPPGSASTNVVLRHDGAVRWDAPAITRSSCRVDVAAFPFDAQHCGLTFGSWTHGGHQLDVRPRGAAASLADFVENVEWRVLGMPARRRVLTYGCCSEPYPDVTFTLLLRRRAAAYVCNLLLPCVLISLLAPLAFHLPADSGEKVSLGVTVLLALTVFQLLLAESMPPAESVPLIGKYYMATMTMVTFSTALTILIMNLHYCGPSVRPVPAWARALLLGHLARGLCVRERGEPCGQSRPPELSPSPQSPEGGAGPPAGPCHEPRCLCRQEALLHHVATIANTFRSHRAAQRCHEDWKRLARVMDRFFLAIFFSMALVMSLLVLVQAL

For the compound `C[C@@H](O)[C@@H]1NC(=O)[C@@H]2CSSC[C@H](C(=O)N[C@@H](Cc3ccc(O)cc3)C(=O)O)NC(=O)[C@H](CCC(N)=O)NC(=O)[C@H](Cc3ccc(O)c(I)c3)NC(=O)[C@H](CCCNC(=N)N)NC(=O)[C@H](CSSC[C@H](NC(=O)CN)C(=O)N2)NC(=O)[C@H](CCCNC(N)=O)NC(=O)[C@@H]2CCCN2C(=O)[C@H](CC(=O)O)NC1=O`, in series [1], 1.5 nM corresponded to half-maximal inhibition (IC50).

`CC(C)C[C@@H]1NC(=O)CNC(=O)[C@H](CC(N)=O)NC(=O)[C@H](CCCNC(=N)N)NC(=O)[C@H]([C@@H](C)O)NC(=O)[C@@H]2CSSC[C@@H]3NC(=O)[C@H]([C@@H](C)O)NC(=O)CNC(=O)CNC(=O)[C@H](C(C)C)NC(=O)[C@@H]4CSSC[C@H](NC(=O)[C@H]([C@@H](C)O)NC(=O)[C@H](CSSC[C@H](NC(=O)[C@H](C(C)C)NC(=O)[C@@H]5CCCN5C1=O)C(=O)NCC(=O)N[C@@H](CCC(=O)O)C(=O)N[C@@H]([C@@H](C)O)C(=O)N4)NC(=O)CNC(=O)[C@@H]1CCCN1C(=O)[C@H]([C@@H](C)O)NC(=O)[C@H](CC(N)=O)NC3=O)C(=O)N[C@@H](CO)C(=O)N[C@@H](Cc1c[nH]c3ccccc13)C(=O)N1CCC[C@H]1C(=O)N[C@@H](C(C)C)C(=O)N2`: the IC50 (as a rule, the point on the concentration scale where inhibition reaches its midpoint) at 10 min in series [2] came to 2900 nM.

Regarding Ac-WMEWDREINNYTSLIEESQNQQEKNEQELL-NH2, the IC50 came to 2.1 nM in series [3] and 0.55 nM in series [4].

In the case of `CC(C)C[C@@H]1NC(=O)CNC(=O)[C@H](CC(N)=O)NC(=O)[C@H](CCCNC(=N)N)NC(=O)[C@H]([C@@H](C)O)NC(=O)[C@@H]2CSSC[C@@H]3NC(=O)[C@H]([C@@H](C)O)NC(=O)CNC(=O)CNC(=O)[C@H](C(C)C)NC(=O)[C@@H]4CSSC[C@H](NC(=O)[C@H](CCCCN)NC(=O)[C@H](CSSC[C@H](NC(=O)[C@H](C(C)C)NC(=O)[C@@H]5CCCN5C1=O)C(=O)NCC(=O)N[C@@H](CCC(=O)O)C(=O)N[C@@H]([C@@H](C)O)C(=O)N4)NC(=O)CNC(=O)[C@@H]1CCCN1C(=O)[C@H]([C@@H](C)O)NC(=O)[C@H](CC(N)=O)NC3=O)C(=O)N[C@@H](CO)C(=O)N[C@@H](Cc1c[nH]c3ccccc13)C(=O)N1CCC[C@H]1C(=O)N[C@@H](C(C)C)C(=O)N2`, the IC50 in the series with T-cell line is 1900 nM.

The record behind these values is ChEMBL document CHEMBL5104119, “Miniproteins in medicinal chemistry” (Bioorg Med Chem Lett, 2022).
